pIC50: −log10 of the molar value.
Experiments:
[1] = target: Tyrosine-protein kinase receptor UFO (Homo sapiens) (UniProt P30530); assay: Selectivity interaction (KinomeScan (DiscoverX)) EUB0000229b AXL; conditions: at 10 µM
[2] = target: Alpha-2B adrenergic receptor (Homo sapiens) (UniProt P18089); assay: Selectivity interaction (GPCR panel (PDSP screen)) EUB0001079a ADRA2B; conditions: at 10 µM
[3] = target: Vascular endothelial growth factor receptor 1 (Homo sapiens) (UniProt P17948); assay: Selectivity interaction (KinomeScan (DiscoverX)) EUB0001079a FLT1; conditions: at 1 µM
CDK2/Cyclin A2 = CDK2/Cyclin A2 (Homo sapiens, UniProt P24941); assay: (§1) Selectivity interaction (Enzymatic assay (Reaction Biology)) EUB0001632a CDK2; assay type: protein-complex assay
[4] = target: Cyclin-dependent kinase 2/cyclin E (Homo sapiens, UniProt P24941); assay: as §1; assay type: protein-complex assay
Ephrin type-A receptor 4 = Ephrin type-A receptor 4 (Homo sapiens, UniProt P54764); assay: Selectivity interaction (KinomeScan (DiscoverX)) EUB0000666a EPHA4; conditions: at 10 µM
Misshapen-like kinase 1 = Misshapen-like kinase 1 (Homo sapiens, UniProt Q8N4C8); assay: Selectivity interaction (KinomeScan (DiscoverX)) EUB0000666a MINK1; conditions: at 10 µM
[5] = target: Mitogen-activated protein kinase kinase kinase 10 (Homo sapiens) (UniProt Q02779); assay: Selectivity interaction (KinomeScan (DiscoverX)) EUB0000666a MAP3K10; conditions: at 10 µM
[6] = target: Fibroblast growth factor receptor 1 (Homo sapiens, UniProt P11362); conditions: at 10 µM
[7] = target: Sodium-dependent dopamine transporter (Homo sapiens, UniProt Q01959); assay: Selectivity interaction (Panel of non-epigenetic targets (kinases, GPCRs, ion channels, and transporters, Eurofins) ) EUB0000271b SLC6A3; conditions: at 1 µM
[8] = target: Homeodomain-interacting protein kinase 3 (Homo sapiens, UniProt Q9H422); assay: Selectivity interaction (KinomeScan (DiscoverX)) EUB0001049a HIPK3; conditions: at 1 µM
[9] = target: Protein kinase C theta type (Homo sapiens, UniProt Q04759); assay: Selectivity interaction (Millipore kinase profiler) EUB0000124b PRKCQ; conditions: at 10 µM
[10] = target: Serine/threonine-protein kinase 26 (Homo sapiens, UniProt Q9P289); conditions: PBMC, at 1 µM
[11] = target: T1, Mitogen-activated protein kinase kinase kinase 5 (Homo sapiens) (UniProt Q99683); assay: Selectivity interaction (KinomeScan (DiscoverX)) EUB0000607a MAP3K5; conditions: at 10 µM
T1 sequence (whole entry): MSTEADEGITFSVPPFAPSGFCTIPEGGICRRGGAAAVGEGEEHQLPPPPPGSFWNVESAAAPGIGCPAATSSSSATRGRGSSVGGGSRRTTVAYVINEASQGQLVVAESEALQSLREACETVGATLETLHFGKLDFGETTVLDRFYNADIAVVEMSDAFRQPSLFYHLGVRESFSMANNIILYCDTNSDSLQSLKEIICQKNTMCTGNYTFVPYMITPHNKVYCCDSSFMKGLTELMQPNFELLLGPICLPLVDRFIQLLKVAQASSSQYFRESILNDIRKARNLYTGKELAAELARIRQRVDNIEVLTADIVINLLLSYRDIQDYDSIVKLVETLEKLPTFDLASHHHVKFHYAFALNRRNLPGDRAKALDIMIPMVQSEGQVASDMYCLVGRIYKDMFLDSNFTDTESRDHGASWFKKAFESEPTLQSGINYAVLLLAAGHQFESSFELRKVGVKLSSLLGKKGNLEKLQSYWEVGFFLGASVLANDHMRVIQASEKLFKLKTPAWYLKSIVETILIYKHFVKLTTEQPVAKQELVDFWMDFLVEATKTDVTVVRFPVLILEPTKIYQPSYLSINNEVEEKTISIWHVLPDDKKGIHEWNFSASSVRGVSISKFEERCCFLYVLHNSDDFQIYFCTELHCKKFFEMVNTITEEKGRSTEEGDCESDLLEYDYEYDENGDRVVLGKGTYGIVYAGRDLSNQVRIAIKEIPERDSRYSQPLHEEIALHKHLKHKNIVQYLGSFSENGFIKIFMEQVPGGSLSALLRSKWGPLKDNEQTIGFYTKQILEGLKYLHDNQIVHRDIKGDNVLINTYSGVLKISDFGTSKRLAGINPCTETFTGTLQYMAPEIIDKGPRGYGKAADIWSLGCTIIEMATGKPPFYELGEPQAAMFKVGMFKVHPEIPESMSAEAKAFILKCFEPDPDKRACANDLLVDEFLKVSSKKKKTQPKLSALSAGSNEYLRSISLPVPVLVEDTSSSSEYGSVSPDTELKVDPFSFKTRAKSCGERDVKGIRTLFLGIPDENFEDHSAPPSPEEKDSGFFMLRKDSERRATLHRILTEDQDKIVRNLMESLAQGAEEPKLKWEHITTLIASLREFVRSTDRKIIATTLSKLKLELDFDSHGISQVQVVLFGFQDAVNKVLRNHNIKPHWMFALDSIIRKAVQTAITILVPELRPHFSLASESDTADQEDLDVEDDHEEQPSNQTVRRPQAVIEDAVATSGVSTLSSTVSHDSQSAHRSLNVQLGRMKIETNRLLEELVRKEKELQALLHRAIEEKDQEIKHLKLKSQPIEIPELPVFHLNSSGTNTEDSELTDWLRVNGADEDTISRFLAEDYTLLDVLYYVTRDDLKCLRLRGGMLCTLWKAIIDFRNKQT

[12] = target: SRSF protein kinase 3 (Homo sapiens) (UniProt Q9UPE1); assay: Selectivity interaction (SelectScreen profiling (Invitrogen)) EUB0000607a SRPK3; conditions: at 2 µM
[13] = target: Rho-associated protein kinase 1 (Homo sapiens) (UniProt Q13464); assay: Selectivity interaction (KinomeScan (DiscoverX)) EUB0000618a ROCK1; conditions: at 10 µM
[14] = target: Mitogen-activated protein kinase 9 (Homo sapiens, UniProt P45984); assay: Selectivity interaction (ActivX KiNativ screen (kinase selectivity in THP-1 cell lysates)) EUB0000639a MAPK9; assay type: subcellular; conditions: lysate, at 0.04 µM
[15] = target: LIM domain kinase 2 (Homo sapiens) (UniProt P53671); assay: Selectivity interaction (KinomeScan (DiscoverX)) EUB0000655a LIMK2; conditions: at 10 µM
[16] = target: Serine/threonine-protein kinase mTOR (Homo sapiens, UniProt P42345); assay: Selectivity interaction (KinomeScan (DiscoverX)) EUB0000655a MTOR; conditions: at 10 µM
[17] = target: Serine/threonine-protein kinase PAK 2 (Homo sapiens) (UniProt Q13177); assay: Selectivity interaction (KinomeScan (DiscoverX)) EUB0000655a PAK2; conditions: at 10 µM

Sequence of Misshapen-like kinase 1 (Q8N4C8 whole entry, looked up): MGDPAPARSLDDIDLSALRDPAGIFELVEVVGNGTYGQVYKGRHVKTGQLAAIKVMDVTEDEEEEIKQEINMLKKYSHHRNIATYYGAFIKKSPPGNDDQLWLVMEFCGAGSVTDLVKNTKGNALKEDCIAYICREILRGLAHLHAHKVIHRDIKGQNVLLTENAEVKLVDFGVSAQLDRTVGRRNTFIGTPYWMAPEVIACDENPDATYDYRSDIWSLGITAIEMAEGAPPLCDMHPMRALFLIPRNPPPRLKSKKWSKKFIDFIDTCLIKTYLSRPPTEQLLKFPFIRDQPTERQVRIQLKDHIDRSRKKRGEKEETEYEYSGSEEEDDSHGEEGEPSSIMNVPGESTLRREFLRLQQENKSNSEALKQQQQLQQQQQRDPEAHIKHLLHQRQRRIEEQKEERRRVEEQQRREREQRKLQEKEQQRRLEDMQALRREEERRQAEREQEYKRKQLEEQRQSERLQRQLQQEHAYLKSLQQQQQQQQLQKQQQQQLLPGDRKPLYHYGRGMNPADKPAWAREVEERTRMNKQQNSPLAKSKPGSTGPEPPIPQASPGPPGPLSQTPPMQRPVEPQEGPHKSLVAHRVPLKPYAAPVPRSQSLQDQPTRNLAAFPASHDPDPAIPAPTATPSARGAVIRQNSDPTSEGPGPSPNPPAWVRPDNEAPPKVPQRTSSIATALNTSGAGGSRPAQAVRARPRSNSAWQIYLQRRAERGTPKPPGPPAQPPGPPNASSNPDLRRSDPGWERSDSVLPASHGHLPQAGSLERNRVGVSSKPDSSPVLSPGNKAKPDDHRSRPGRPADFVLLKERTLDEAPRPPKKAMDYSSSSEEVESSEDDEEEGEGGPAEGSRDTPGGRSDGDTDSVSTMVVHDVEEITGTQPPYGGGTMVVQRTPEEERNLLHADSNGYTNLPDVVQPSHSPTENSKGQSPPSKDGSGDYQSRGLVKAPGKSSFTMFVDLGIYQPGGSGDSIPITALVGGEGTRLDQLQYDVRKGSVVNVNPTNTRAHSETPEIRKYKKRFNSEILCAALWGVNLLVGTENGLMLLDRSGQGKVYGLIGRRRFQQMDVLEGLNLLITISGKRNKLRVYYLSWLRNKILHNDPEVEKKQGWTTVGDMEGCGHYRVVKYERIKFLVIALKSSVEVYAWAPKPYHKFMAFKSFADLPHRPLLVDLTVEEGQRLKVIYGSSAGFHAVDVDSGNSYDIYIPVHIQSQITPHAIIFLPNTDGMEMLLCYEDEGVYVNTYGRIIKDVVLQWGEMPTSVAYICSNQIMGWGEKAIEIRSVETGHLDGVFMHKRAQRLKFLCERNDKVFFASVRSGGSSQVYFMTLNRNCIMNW
Sequence of Alpha-2B adrenergic receptor (Homo sapiens) (P18089 whole entry): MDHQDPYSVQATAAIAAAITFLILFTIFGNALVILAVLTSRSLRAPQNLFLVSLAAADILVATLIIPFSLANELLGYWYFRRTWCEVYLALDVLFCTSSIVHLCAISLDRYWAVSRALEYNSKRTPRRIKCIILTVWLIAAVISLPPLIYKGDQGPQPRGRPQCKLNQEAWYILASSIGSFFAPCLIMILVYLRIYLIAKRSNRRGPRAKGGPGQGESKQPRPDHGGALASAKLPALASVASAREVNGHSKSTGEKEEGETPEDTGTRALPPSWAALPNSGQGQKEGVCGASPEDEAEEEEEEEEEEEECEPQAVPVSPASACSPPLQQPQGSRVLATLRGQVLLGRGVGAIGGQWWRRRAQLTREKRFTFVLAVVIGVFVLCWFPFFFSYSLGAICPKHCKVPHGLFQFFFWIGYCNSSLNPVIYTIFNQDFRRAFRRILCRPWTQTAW
Sequence of Tyrosine-protein kinase receptor UFO (Homo sapiens) (P30530 whole entry): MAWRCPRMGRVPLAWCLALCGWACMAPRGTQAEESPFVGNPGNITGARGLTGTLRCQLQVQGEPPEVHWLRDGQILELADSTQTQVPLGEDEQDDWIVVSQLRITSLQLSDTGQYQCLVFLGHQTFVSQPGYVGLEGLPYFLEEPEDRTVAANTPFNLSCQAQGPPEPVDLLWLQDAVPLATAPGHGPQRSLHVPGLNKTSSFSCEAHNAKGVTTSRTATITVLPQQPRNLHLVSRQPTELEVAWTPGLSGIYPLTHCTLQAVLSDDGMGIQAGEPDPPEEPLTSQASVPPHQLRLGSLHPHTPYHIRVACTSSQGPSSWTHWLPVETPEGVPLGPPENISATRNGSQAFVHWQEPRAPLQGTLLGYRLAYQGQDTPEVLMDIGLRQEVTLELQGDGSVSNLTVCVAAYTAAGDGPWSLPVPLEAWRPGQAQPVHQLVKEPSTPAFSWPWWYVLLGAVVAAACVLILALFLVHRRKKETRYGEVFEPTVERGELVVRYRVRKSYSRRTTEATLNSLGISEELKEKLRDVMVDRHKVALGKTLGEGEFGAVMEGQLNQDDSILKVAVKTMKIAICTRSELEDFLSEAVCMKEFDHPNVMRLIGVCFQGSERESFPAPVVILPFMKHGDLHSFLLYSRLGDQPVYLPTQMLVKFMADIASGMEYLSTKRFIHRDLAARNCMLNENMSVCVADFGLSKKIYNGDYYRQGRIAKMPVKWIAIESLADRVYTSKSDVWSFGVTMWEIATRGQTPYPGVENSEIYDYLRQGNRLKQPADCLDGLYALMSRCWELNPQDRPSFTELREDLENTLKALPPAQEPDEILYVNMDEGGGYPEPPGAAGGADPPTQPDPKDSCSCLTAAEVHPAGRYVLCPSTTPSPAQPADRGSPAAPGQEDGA
Sequence of Vascular endothelial growth factor receptor 1 (Homo sapiens) (P17948 whole entry): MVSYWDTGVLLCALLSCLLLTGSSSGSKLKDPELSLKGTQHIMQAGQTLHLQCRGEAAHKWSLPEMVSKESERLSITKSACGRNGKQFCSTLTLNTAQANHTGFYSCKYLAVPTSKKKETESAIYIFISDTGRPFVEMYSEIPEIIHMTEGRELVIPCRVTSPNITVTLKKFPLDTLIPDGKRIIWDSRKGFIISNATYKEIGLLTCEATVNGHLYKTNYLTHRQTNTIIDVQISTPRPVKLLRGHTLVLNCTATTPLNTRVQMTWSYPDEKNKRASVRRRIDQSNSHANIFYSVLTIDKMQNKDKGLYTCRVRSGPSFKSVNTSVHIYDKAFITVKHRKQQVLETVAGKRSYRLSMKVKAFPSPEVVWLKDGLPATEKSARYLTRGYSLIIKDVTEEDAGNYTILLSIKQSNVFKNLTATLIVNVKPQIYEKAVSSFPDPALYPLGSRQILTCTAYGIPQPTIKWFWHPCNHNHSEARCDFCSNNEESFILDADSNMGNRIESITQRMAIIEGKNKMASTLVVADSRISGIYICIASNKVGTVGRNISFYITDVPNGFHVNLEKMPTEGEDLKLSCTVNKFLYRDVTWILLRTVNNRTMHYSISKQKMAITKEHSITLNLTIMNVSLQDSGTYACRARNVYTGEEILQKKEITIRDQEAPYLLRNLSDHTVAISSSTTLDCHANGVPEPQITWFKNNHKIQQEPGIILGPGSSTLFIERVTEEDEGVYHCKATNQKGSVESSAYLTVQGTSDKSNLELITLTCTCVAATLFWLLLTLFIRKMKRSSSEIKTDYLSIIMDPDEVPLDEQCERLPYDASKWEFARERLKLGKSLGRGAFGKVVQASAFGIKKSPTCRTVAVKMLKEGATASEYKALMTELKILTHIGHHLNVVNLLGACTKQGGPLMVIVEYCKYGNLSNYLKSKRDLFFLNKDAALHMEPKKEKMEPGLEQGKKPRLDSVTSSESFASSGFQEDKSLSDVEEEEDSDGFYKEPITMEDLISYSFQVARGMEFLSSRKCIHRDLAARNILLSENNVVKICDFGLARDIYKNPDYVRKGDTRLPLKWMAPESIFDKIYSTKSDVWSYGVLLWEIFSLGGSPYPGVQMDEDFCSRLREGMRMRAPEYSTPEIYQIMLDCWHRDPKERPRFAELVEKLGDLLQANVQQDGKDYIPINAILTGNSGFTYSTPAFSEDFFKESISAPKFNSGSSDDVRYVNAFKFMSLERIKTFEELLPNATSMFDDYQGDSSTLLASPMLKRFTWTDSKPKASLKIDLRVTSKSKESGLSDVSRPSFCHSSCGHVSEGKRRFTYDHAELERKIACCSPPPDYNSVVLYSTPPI
Sequence of Mitogen-activated protein kinase kinase kinase 10 (Homo sapiens) (Q02779 whole entry, looked up): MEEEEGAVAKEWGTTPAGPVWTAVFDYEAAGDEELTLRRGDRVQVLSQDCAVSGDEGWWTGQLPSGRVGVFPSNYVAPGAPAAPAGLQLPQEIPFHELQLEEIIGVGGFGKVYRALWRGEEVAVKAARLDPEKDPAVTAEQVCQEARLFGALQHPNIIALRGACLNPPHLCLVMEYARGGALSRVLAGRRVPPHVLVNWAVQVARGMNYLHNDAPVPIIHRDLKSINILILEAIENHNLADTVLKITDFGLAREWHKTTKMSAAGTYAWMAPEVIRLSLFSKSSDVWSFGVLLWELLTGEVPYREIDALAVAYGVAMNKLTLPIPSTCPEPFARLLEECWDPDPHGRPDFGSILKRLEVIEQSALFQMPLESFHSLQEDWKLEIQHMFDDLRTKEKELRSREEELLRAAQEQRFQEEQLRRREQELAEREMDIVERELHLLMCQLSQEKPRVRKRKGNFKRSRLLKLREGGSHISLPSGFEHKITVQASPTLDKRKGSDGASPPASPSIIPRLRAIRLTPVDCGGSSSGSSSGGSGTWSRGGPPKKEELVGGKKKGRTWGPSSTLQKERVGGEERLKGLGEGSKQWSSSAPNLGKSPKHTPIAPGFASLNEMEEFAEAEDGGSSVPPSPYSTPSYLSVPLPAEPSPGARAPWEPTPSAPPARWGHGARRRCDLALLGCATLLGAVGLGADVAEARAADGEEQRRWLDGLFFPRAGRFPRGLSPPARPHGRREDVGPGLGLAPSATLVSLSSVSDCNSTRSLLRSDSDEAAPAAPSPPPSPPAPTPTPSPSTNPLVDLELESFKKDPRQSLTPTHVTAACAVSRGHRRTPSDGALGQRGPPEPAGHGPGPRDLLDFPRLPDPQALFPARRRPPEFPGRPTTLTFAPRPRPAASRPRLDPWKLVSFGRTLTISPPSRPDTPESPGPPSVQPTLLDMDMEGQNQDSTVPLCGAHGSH

`COc1cc(N(C)c2ccnc3ccc(C(F)(F)F)cc23)cc(OC)c1OC` was tested. Which % binding [1] did it give?
Its % binding is 86%.

With `Nc1cnc(N2CCc3cc(S(=O)(=O)Nc4c(F)cc(Cl)cc4F)cc(N4CCCC4=O)c32)nc1` [TP-020n] as the molecule, how does the % of inhibition [2] read?
Its % of inhibition is 0.99%.

And the % of control [3]?
Its % of control is 93%.

How did the pIC50 (CDK2/Cyclin A2) turn out when `Cn1cc(-n2cnc3c(NCc4nc5cc(Cl)c(Cl)cc5[nH]4)nc(N4CCOCC4)nc32)cn1` was run?
Its pIC50 is under 5.00.

What about the pIC50 [4] of the same molecule?
The pIC50 was under 5.00.

With `O=C(NOC[C@H](O)CO)c1ccc(F)c(F)c1Nc1ccc(I)cc1F` as the molecule, how does the % of control (Ephrin type-A receptor 4) read?
Its % of control is 100%.

And the % of control (Misshapen-like kinase 1)?
Its % of control is 94%.

What about the % of control [5] of the same molecule?
Its % of control is 100%.

Which % of control [6] does the source give for `Cc1cc([C@@H](C)Nc2ccccc2C(=O)O)c2nc(N3CCOCC3)cc(=O)n2c1` [AZD-6482] here?
The % of control was 89%.

How did the % of inhibition [7] turn out when `Cc1cc(C)cc([C@@H]2c3cc(C)ccc3NC(=O)CN2C(=O)c2ccc(Br)s2)c1` was run?
The % of inhibition was 6%.

How did the % of control [8] turn out when `COc1cc(Nc2nc(C)cc(-c3cnn4nc(OC)ccc34)n2)cc(C(F)(F)F)c1` was run?
Its % of control is 95%.

`CC(=O)Nc1cccc(-n2c(=O)n(C3CC3)c(=O)c3c(Nc4ccc(I)cc4F)n(C)c(=O)c(C)c32)c1` was tested. Which % of control [9] did it give?
Its % of control is 114%.

`N#Cc1cccc(-c2c[nH]c3ncnc(N4CCOCC4)c23)c1` was tested. Which % of inhibition [10] did it give?
Its % of inhibition is 65%.

Which % of control [11] does the source give for `CNC(=O)Nc1ccc(-c2nc(N3CC4CCC(C3)O4)c3cnn(C4CCC5(CC4)OCCO5)c3n2)cc1` here?
Its % of control is 85%.

What about the % of inhibition [12] of the same molecule?
Its % of inhibition is 6%.

Which % of control [13] does the source give for `O[C@H]1CC[C@H](Nc2ncc3nc(Nc4c(F)cc(F)cc4F)n([C@H]4CCOC4)c3n2)CC1` here?
Its % of control is 91%.

For `CC[C@@H]1[C@H](F)C(=O)N[C@@H]1COc1nccc2cc(C(N)=O)c(OC)cc12` [ZIMLOVISERTIB], which % of inhibition [14] is on record?
The % of inhibition was -18.4%.

How did the % of control [15] turn out when `CN(C)CCOc1ccc(-c2nc(-c3ccncc3)c(-c3ccc4c(c3)CC/C4=N\O)[nH]2)cc1` was run?
Its % of control is 79%.

What about the % of control [16] of the same molecule?
Its % of control is 75%.

And the % of control [17]?
Its % of control is 85%.
